# Assay results as given in patent publication US5773447A, “Compounds for treating disorders of lipid metabolism and their preparation” (Hoechst Aktiengesellschaft, priority 1996, dated 1998).
# Counter-ions that a name gives are not always drawn.
# Assays:
# [1] = system: LDL receptor mRNA; test: Stimulation of LDL receptor mRNA expression in rat livers after administration (Northern blot); format: in vivo; settings: rat liver, 6 hours after administration, untreated control=100%
# Excerpt: (§1) Using a surrogate system, the present inventors sought to confirm the pharmacological activity of the inventive compounds. Thus, utilizing the human hepatocytoma cell line HepG2, which is recognized on all sides as a model, it was observed that the LDL receptor mRNA levels are increased by the compounds of the formula I (Table I). Even in rat livers, within a few hours the LDL receptor mRNA levels are increased by the compounds of the formula I (Table II). The observed stimulation is in the range from 170 to 350% of the controls (control=100%). Accordingly, an effective amount of an inventive compound can include an amount sufficient to increase CDL receptor levels or reduce plasma lipid levels.
# The preparation of the mRNA was carried out according to the method of Chomczynski, P. and Sacchi, N., Anal. Biochem. 162, 156-159 (1987). In organs (such as, for example, liver), the deep-frozen tissue was homogenized on dry ice beforehand in a mortar, and the mRNA was further enriched by means of Oligo dT according to standard methods (cf. Sambrook, J., Fritsch, E. F. and Maniatis, T., Molecular Cloning, second Edition, Cold Spring Harbor (1989); in this collection of methods, there are also descriptions of all further relevant molecular biology standard methods used here). Five to […] of the dissolved mRNA thus obtained were denatured according to standard methods and separated on 1% horizontal agarose gels. The mRNA was transferred to Hybond N membranes (Amersham) by means of capillary blot. The specific hybridization probe used was a partial LDL receptor cDNA clone and the internal standard a plasmid which contained a β-actin gene. Both plasmids were labeled by means of a random primer kit from Amersham up to a specific activity of 5×10^9 cpm/μg. Prehybridization, hybridization and washing of the filters were carried out by standard methods. The filters were then exposed at -70° C. on Cronex 4 films (Dupont) overnight up to 14 days in the presence of an intensifying screen, and the hybridization signals were quantified using a commercial laser densitometer by means of the film-blackening intensity. The quotient of the intensity of the LDL receptor band and of the actin band was then determined as an internal standard to correct yield variations.
# Liver tissue was removed and shock-frozen in liquid nitrogen. The mRNA was then isolated as described, and the relative LDL receptor mRNA levels were determined by means of the Northern blot technique. The mRNA levels of untreated control animals were set at 100%, and the stimulation of the LDL receptor mRNA in percent of the control was calculated.
# [2] = Metabolic stability: dealkylation to compound A in in vitro incubations (HPLC); format: in vitro ADME; settings: human, liver 9000 g fraction, 37° C., R1-dealkylated metabolite, read-out: relative content of compound A; for metabolised at 0.5 h: incubation time 0.5 h; for metabolised at 1 h: incubation time 1 h; for metabolised at 2 h: incubation time 2 h; for metabolised at 3 h: incubation time 3 h
# Excerpt: It is known that compounds of formula I where R^1 =alkyl are degraded in the metabolism to compounds of the formula I where R^1 =H (in the following called compound A). Accordingly, the instant inventors sought to investigate the metabolic fate of our inventive compounds. The following experiments, which can be carried out using intact human hepatocytes or liver extracts, are used to investigate the dealkylation tendency of the compounds of the formula I according to the invention in comparison to 4-amino-2-(4,4-dimethyl-2-oxoimidazolidin-1-yl)pyrimidine-5-N-(ethyl)-N-(3-trifluoromethyl-phenyl)carboxamide hydrochloride (compound of Example 2 from EP 0 557 879--in the following called compound B).
# Frozen samples of pieces of human liver stored at -78° C. were thawed by introducing them into a 1.1% strength potassium chloride solution at a temperature of 4° C. […] After thawing, the pieces of liver were prepared by standard processes [A. Y. H. Lu, W. Levin; Biochem. Biophys. Res. Comm. 46, 1339-1344 (1972), P. G. Gervasi et al.; Xenobiotica 12/8, 517 (1982)]. The temperature was kept between 0° and 4° C. during the preparation. The 9000 g fractions of ten human livers were mixed in order to exclude interindividual enzyme differences.
# The test substances were dissolved in DMSO at a concentration of about 10 mg/ml. Aliquot parts of this solution were added under sterile conditions to the hepatocyte cultures or the 9000 g fractions. The incubations were carried out at 37° C. in an atmosphere having 5% CO2 and >90% atmospheric humidity. […] NADPH and Mg^2+ were added to the 9000 g fractions as cofactors [P. G. Gervasi et al.; Xenobiotica 12/8, 517 (1982)]. All samples were frozen immediately after incubation and stored at below -20° C. until analysis.
# For each species and each time, all incubations with hepatocytes and 9000 g fractions were carried out without addition of a test substance. The samples obtained were used as controls in the chromatographic analysis.
# For the quantitative determination of compound A, i.e. the R^1 -dealkylated metabolite, in the in vitro incubation mixtures, […] of each mixture was in each case diluted with […] of bovine serum. These samples were analyzed by the following test for the determination of compound B free base and metabolite compound A free base in serum:
# Fifty microliters of the prepared solution of an internal standard (10 μg of a compound of the formula I where R^1 =CH3, R^2, R^3 =H and R^4 =CF3 /ml of methanol), 0.1 ml of sodium acetate buffer (0.4M, pH 5.5) and 5 ml of ethyl ether were added to 0.1 ml of serum. The mixture was shaken for 20 min. After centrifuging, 4 ml of the organic phase were transferred, 3 ml of n-hexane were added and the mixture was extracted with 0.5 ml of 1% strength (v/v) aqueous trifluoroacetic acid. The upper organic layer was aspirated off and discarded. The aqueous residue was evaporated at 40° C. for 30 min. in order to remove residues of the organic solvent. 100 μl of the remaining aqueous phase were injected into the HPLC apparatus. HPLC analysis was carried out on a C18 RP column (TosoHaas Semi-Micro TSK gel ODS 80 TS) using a mobile phase of 800 g of water, 270 g of acetonitrile and 1 ml of trifluoroacetic acid. The flow rate was 0.2 ml/min. The quantitative determination of the analytes was carried out by measuring the peak heights with the aid of a UV detector at γ=240 nm. The calibration range was between 50 and 0.05 μg/ml corresponding to 200 to 0.2 μg/ml in the undiluted in vitro sample. The detection limit was 0.05 μg/ml corresponding to 0.2 μg/ml in the undiluted in vitro sample.
# [3] = system: LDL receptor mRNA; test: Stimulation of LDL receptor mRNA expression in HepG2 cells (Northern blot); format: cell-based; settings: Homo sapiens, 2 × 10^-6 M, 16 h incubation, 10% fetal calf serum, LDL receptor/β-actin quotient, control=100%
# Excerpt: as §1
# The preparation of the mRNA was carried out according to the method of Chomczynski, P. and Sacchi, N., Anal. Biochem. 162, 156-159 (1987). In organs (such as, for example, liver), the deep-frozen tissue was homogenized on dry ice beforehand in a mortar, and the mRNA was further enriched by means of Oligo dT according to standard methods (cf. Sambrook, J., Fritsch, E. F. and Maniatis, T., Molecular Cloning, second Edition, Cold Spring Harbor (1989); in this collection of methods, there are also descriptions of all further relevant molecular biology standard methods used here). […] The filters were then exposed at -70° C. on Cronex 4 films (Dupont) overnight up to 14 days in the presence of an intensifying screen, and the hybridization signals were quantified using a commercial laser densitometer by means of the film-blackening intensity. The quotient of the intensity of the LDL receptor band and of the actin band was then determined as an internal standard to correct yield variations.
# Table I presents the stimulation of the LDL receptor mRNA expression in HepG2 cells by selected compounds of formula I in whole serum (final concentration of the compounds […]) after a 16 h incubation. […] The total mRNA was then prepared, and the relevant LDL receptor mRNA and β-actin mRNA levels were determined by means of the Northern blot technique. […]
metabolised at 0.5 h [2],metabolised at 1 h [2],metabolised at 2 h [2],metabolised at 3 h [2],SMILES,response vs control in vivo at 30 mg/kg [1],activity at 2 µM [3]
,,,,"CC1(C)CN(c2ncc(C(=O)N(CC(F)(F)F)c3ccc(Cl)c(C(F)(F)F)c3)c(N)n2)C(=O)N1 [Example 8, 4-Amino-2-(4,4-dimethylimidazolidin-2-on-1-yl)pyrimidine-5-N-[(4-chloro-3-trifluoromethyl)phenyl]-N-(2,2,2-trifluoroethyl)carboxamide hydrochloride]",182%,
2%,4%,6%,9%,"CC1(C)CN(c2ncc(C(=O)N(CCF)c3cccc(C(F)(F)F)c3)c(N)n2)C(=O)N1 [Example 12, 4-Amino-2-(4,4-dimethylimidazolidin-2-on-1-yl)pyrimidine-5-[N-(3-trifluoromethylphenyl)-N-(2-fluoroethyl)]carboxamide]",,
,,,,"CC1(C)CN(c2ncc(C(=O)N(CC(F)(F)C(F)(F)F)c3cc(C(F)(F)F)ccc3Cl)c(N)n2)C(=O)N1 [Example 11, 4-Amino-2-(4,4-dimethylimidazolidin-2-on-1-yl)pyrimidine-5-N-[(6-chloro-3-trifluoromethyl)phenyl]-N-(2,2,3,3,3-pentafluoropropyl)carboxamide hydrochloride]",,290%
< 2%,< 2%,3%,4%,"CC1(C)CN(c2ncc(C(=O)N(CC(F)(F)F)c3cccc(C(F)(F)F)c3)c(N)n2)C(=O)N1 [Example 1, 4-Amino-2-(4,4-dimethylimidazolidin-2-on-1-yl) pyrimidine-5-N-(2,2,2-trifluoroethyl)-N-[(3-trifluoromethyl)phenyl]carboxamide hydrochloride]",220%,220%
,,,,"CC1(C)CN(c2ncc(C(=O)N(CC(F)(F)C(F)(F)C(F)(F)F)c3ccc(F)c(C(F)(F)F)c3)c(N)n2)C(=O)N1 [Example 17, 4-Amino-2-(4,4-dimethylimidazolidin-2-on-1-yl)-5-pyrimidine-5-[N-(3-trifluoromethyl-4-fluorophenyl)-N-(2,2,3,3,4,4,4-heptafluorobutyl)]-carboxamide]",195%,
4%,8%,10%,12%,"CCN(C(=O)c1cnc(N2CC(C)(C)NC2=O)nc1N)c1cccc(C(F)(F)F)c1 [Compound B, 4-amino-2-(4,4-dimethyl-2-oxoimidazolidin-1-yl)pyrimidine-5-N-(ethyl)-N-(3-trifluoromethyl-phenyl)carboxamide hydrochloride, reference compound]",,
,,,,"CC1(C)CN(c2ncc(C(=O)N(CC(F)(F)C(F)(F)F)c3cccc(C(F)(F)F)c3)c(N)n2)C(=O)N1 [Example 3, 4-Amino-2-(4,4-dimethylimidazolidin-2-on-1-yl-pyrimidine-5-N-(2,2,3,3,3-pentafluoropropyl)-N-[(3trifluoromethyl)phenyl]carboxamide hydrochloride]",200%,
,,,,"CC1(C)CN(c2ncc(C(=O)N(CC(F)(F)C(F)(F)C(F)(F)F)c3ccc(Cl)c(C(F)(F)F)c3)c(N)n2)C(=O)N1 [Example 10, 4-Amino-2-(4,4-dimethylimidazolidin-2-on-1-yl)pyrimidine-5-N-[(4-chloro-3-trifluoromethyl)phenyl]-N-(2,2,3,3,4,4,4-heptafluorobutyl)carboxamide]",,206%
,,,,"CC1(C)CN(c2ncc(C(=O)N(CC(F)(F)C(F)(F)F)c3ccc(Cl)c(C(F)(F)F)c3)c(N)n2)C(=O)N1 [Example 9, 4-Amino-2-(4,4-dimethylimidazolidin-2-on-1-yl)pyrimidine-5-N-[(4-chloro-3-trifluoromethyl)phenyl]-N-(2,2,3,3,3-pentafluoropropyl)carboxamide]",193%,
,,,,"CC1(C)CN(c2ncc(C(=O)N(CC(F)(F)C(F)(F)C(F)(F)F)c3cc(C(F)(F)F)ccc3Cl)c(N)n2)C(=O)N1 [Example 14, 4-Amino-2-(4,4-dimethylimidazolidin-2-on-1-yl)pyrimidine-5-[N-(3-trifluoromethyl-6-chlorophenyl)-N-(2,2,3,3,4,4,4-heptafluorobutyl)]-carboxamide]",194%,
,,,,"CC1(C)CN(c2ncc(C(=O)N(CC(F)(F)F)c3ccc(F)c(C(F)(F)F)c3)c(N)n2)C(=O)N1 [Example 6, 4-Amino-2-(4,4-dimethylimidazolidin-2-on-1-yl)pyrimidine-5-N-(2,2,2-trifluoroethyl)-N-[(4-fluoro-3-trifluoromethyl)phenyl]carboxamide]",216%,

SMILES,metabolised at 0.5 h [2],metabolised at 1 h [2],metabolised at 2 h [2],metabolised at 3 h [2],response vs control in vivo at 30 mg/kg [1],activity at 2 µM [3]
"CC1(C)CN(c2ncc(C(=O)N(CC(F)(F)C(F)(F)C(F)(F)F)c3cccc(C(F)(F)F)c3)c(N)n2)C(=O)N1 [Example 2, 4-Amino-2-(4,4-dimethylimidazolidin-2-on-1-yl)pyrimidine-5-N-(2,2,3,3,4,4,4-heptafluorobutyl)-N-[(3-trifluoromethyl)phenyl]carboxamide hydrochloride]",< 2%,< 2%,< 2%,< 2%,245%,
